Measured values reported in paper PMC6017090, “Design, Synthesis and Biological Evaluation of Novel N-Pyridyl-Hydrazone Derivatives as Potential Monoamine Oxidase (MAO) Inhibitors” (Molecules : A Journal of Synthetic Chemistry and Natural …, 2018).

What was measured:
[1] = system: NIH/3T3 mouse embryonic fibroblast cells
Method: The MTT assay was performed as previously described [21, 22, 23, 24, 25, 26].

human recombinant MAO-B = target: T1, human recombinant MAO-B (Homo sapiens, UniProt P27338); experiment: MAO activity assay (fluorometric, kynuramine substrate), MAO-B; type: biochemical; conditions: 10^−3 M; ± S.D.
T1 construct: purchased Sigma-Aldrich
T1 sequence (P27338 1-520): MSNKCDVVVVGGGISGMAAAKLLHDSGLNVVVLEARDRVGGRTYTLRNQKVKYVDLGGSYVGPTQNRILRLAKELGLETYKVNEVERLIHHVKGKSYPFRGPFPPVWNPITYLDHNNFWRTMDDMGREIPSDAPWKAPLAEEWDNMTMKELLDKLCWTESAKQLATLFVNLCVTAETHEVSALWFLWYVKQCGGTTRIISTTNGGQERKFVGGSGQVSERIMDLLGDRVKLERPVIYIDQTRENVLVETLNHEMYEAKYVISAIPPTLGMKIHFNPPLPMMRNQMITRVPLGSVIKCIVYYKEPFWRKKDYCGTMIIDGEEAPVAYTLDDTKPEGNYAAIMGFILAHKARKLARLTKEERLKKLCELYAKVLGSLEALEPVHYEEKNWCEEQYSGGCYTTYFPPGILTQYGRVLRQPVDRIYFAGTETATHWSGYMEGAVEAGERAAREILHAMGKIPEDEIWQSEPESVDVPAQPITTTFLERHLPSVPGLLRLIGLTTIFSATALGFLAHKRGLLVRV
Method: (§1) The enzyme activity assay was performed in accordance with the procedure reported by Matsumoto et al. with slight modifications. All materials used in the enzymatic assays were purchased from Sigma-Aldrich Chemicals. All pipetting protocols in the assay were performed by the Biotek Precision robotic system (BioTek Instruments, Inc., Winooski, VT, USA). To prevent the effect of light MAO enzymes, the assay was performed in 96-well black plates. Phosphate buffer (0.1 M, pH = 7.4) was used for the preparation of 5 mg/mL stock solutions of the human recombinant MAO-A and MAO-B enzymes. The enzyme stock solutions were further diluted with an assay buffer to obtain final concentrations of 0.006 mg/mL MAO-A and 0.015 mg/mL MAO-B. Kynuramine was dissolved in sterilized distilled water to obtain a 25 mM stock solution and then diluted with the assay buffer to obtain final concentrations of 40 μM for the MAO-A enzyme and 20 μM for the MAO-B enzyme. […] The addition of the diluted compounds was followed by the addition of either the MAO-A or MAO-B enzymes (50 μL/well). […] Fluorescence was read from top by using BioTek-Synergy H1 multimode microplate reader at the excitation/emission wavelengths of 310 and 380 nm.
(§2) The IC50 values (Table 2) were calculated from the plots of enzyme activity against concentrations, and the regression analyses were computed in GraphPad Prism Version 6 (GraphPad Software, Inc., La Jolla, CA, USA).

MAO-A enzyme = target: T2, MAO-A enzyme (Homo sapiens, UniProt P21397); experiment: MAO activity assay (fluorometric, kynuramine substrate), MAO-A; type: biochemical
T2 construct: purchased Sigma-Aldrich
T2 sequence (P21397 1-527): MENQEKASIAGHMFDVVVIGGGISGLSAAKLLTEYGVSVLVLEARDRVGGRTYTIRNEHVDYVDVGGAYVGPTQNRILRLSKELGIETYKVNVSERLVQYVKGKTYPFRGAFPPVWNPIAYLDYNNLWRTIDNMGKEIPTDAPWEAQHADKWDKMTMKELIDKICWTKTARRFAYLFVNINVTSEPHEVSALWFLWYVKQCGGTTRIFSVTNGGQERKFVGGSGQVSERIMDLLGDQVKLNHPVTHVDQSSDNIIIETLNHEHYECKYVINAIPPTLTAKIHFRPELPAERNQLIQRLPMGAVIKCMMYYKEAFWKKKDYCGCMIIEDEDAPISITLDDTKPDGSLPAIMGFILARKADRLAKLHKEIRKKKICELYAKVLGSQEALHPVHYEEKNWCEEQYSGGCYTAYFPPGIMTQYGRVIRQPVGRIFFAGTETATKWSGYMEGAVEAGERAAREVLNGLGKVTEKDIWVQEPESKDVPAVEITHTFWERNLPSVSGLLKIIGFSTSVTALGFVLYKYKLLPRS
Method: as §1, with “Phosphate buffer (0.1 M, pH = 7.4) was used for the preparation of 5 mg/mL stock solutions of the human recombinant MAO-A and MAO-B enzymes.” left out
as §2

Compound: CCOc1ccc([N+](=O)[O-])c(NN=Cc2ccccn2)n1 [Compound 2n, 6-Ethoxy-3-nitro-2[(2-(pyridine-2-yl)methylene)hydrazinyl]pyridine]
- IC50 [1]: > 1000 µM
- MAO-B Inhibition % (human recombinant MAO-B): 42.00 ± 1.21%
- IC50 (MAO-A enzyme): 9.52 µM
- MAO-A Inhibition % (MAO-A enzyme; 10^−3 M, ± S.D.): 72.07 ± 1.56%
- MAO-A Inhibition % (MAO-A enzyme; 10^−4 M, ± S.D.): 56.90 ± 1.50%
- MAO-A Inhibition % (MAO-A enzyme; 10^−5 M): 42.13 ± 1.22%
- MAO-A Inhibition % (MAO-A enzyme; 10^−6 M): 35.11 ± 1.18%
- MAO-A Inhibition % (MAO-A enzyme; 10^−7 M): 24.96 ± 0.83%
- MAO-A Inhibition % (MAO-A enzyme; 10^−8 M): 18.02 ± 0.77%
- MAO-A Inhibition % (MAO-A enzyme; 10^−9 M): 10.40 ± 0.29%
